Source: ChEMBL document CHEMBL3232866, “Design of novel potent antihyperlipidemic agents with antioxidant/anti-inflammatory properties: exploiting phenothiazine's strong antioxidant activity” (J Med Chem, 2014)
Activity calls are given as the source filed them. The calls are words filed in the database; no cut-off is given here.

Legend:
[1] = tested on: Mus musculus; assay: Antidyslipidemic activity in chronic high-fat diet (2.5 w/w cholesterol, 0.5% w/w cholic acid, 10% w/w peanut oil) fed SKH-2 mouse assessed as HDL/LDL ratio in plasma at 56 umol/kg, ip bid for 30 days measured on day 30 (reference value: 0.2 no unit); assay type: functional
[2] = tested on: Mus musculus; assay: Antidyslipidemic activity in chronic high-fat diet (2.5 w/w cholesterol, 0.5% w/w cholic acid, 10% w/w peanut oil) fed SKH-2 mouse assessed as decrease in LDL level in plasma at 56 umol/kg, ip bid for 30 days measured on day 30; assay type: functional; settings: SKH-2, Plasma, 720 h
[3] = tested on: Mus musculus; assay: Effect on food intake in chronic high-fat diet (2.5 w/w cholesterol, 0.5% w/w cholic acid, 10% w/w peanut oil) fed SKH-2 mouse at 56 umol/kg, ip bid for 30 days; assay type: ADME, organism-based; settings: in vivo, 720 h
[4] = target: T1, Squalene synthase (Rattus norvegicus) (UniProt Q02769); assay: (§1) Inhibition of squalene synthase in rat liver microsomes assessed as decrease in conversion of [3H]FPP to squalene
T1 sequence (whole entry): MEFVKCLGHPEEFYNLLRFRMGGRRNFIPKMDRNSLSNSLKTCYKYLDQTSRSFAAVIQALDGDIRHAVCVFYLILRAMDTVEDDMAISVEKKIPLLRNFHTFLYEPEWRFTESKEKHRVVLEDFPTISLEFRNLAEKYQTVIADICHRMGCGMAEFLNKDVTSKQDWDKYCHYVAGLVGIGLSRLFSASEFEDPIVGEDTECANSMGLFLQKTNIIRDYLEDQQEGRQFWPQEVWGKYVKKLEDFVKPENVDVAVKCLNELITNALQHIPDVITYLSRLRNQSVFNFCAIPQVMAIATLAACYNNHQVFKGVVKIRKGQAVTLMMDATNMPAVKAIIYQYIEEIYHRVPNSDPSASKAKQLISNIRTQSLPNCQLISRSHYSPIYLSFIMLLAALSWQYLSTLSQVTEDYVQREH

[5] = target: T2, Squalene synthase (Rattus norvegicus, UniProt Q02769); assay: as §1
T2 sequence (Q02769 whole entry): T1 sequence (whole entry)

[6] = tested on: Mus musculus; assay: Antidyslipidemic activity in chronic high-fat diet (2.5 w/w cholesterol, 0.5% w/w cholic acid, 10% w/w peanut oil) fed SKH-2 mouse assessed as decrease in total cholesterol level in plasma at 56 umol/kg, ip bid for 30 days measured on day 30; assay type: functional; settings: SKH-2, Plasma, 720 h
[7] = tested on: Radical scavenging activity; assay: Antioxidant activity assessed as DPPH radical scavenging activity up to 50 uM measured within 15 mins; assay type: functional
[8] = tested on: Rattus norvegicus; assay: In vivo antidyslipidemic activity against Triton WR 1339-induced hyperlipidemic Wistar rat model assessed as decrease in LDL-cholesterol level in plasma at 56 umol/kg, ip administered as single dose 1 hr after Triton WR 1339 challenge measured after 24 hrs; assay type: functional
[9] = tested on: Mus musculus; assay: Effect on blood glucose level in chronic high-fat diet (2.5 w/w cholesterol, 0.5% w/w cholic acid, 10% w/w peanut oil) fed SKH-2 mouse at 56 umol/kg, ip bid for 30 days; assay type: ADME, organism-based; settings: in vivo, 720 h
[10] = tested on: Radical scavenging activity; assay: Antioxidant activity assessed as DPPH radical scavenging activity after 30 mins; assay type: functional
[11] = tested on: Glycine max; assay: Inhibition of soybean lipoxygenase using sodium linoleate as substrate up to 100 uM measured for 6 mins
[12] = tested on: Mus musculus; assay: Antidyslipidemic activity in chronic high-fat diet (2.5 w/w cholesterol, 0.5% w/w cholic acid, 10% w/w peanut oil) fed SKH-2 mouse assessed as decrease in LDL level in plasma at 56 umol/kg, ip bid for 21 days; assay type: functional; settings: SKH-2, Plasma, 504 h
[13] = tested on: Mus musculus; assay: Effect on body weight in chronic high-fat diet (2.5 w/w cholesterol, 0.5% w/w cholic acid, 10% w/w peanut oil) fed SKH-2 mouse at 56 umol/kg, ip bid for 30 days; assay type: ADME, organism-based; settings: in vivo, 720 h
[14] = tested on: Rattus norvegicus; assay: In vivo antidyslipidemic activity against Triton WR 1339-induced hyperlipidemic Wistar rat model assessed as decrease in triglyceride level in plasma at 56 umol/kg, ip administered as single dose 1 hr after Triton WR 1339 challenge measured after 24 hrs; assay type: functional
[15] = tested on: Mus musculus; assay: Antidyslipidemic activity in chronic high-fat diet (2.5 w/w cholesterol, 0.5% w/w cholic acid, 10% w/w peanut oil) fed SKH-2 mouse assessed as triglyceride level in plasma at 56 umol/kg, ip bid for 30 days measured on day 30; assay type: functional, organism-based
[16] = tested on: Mus musculus; assay: Antidyslipidemic activity in chronic high-fat diet (2.5 w/w cholesterol, 0.5% w/w cholic acid, 10% w/w peanut oil) fed SKH-2 mouse assessed as increase in HDL level in plasma at 56 umol/kg, ip bid for 30 days measured on day 30; assay type: functional
[17] = Antioxidant activity in rat liver microsome membrane assessed as inhibition of lipid peroxidation after 45 mins by TBARS-based spectrophotometric assay; assay type: functional, microsomes
[18] = tested on: Rattus norvegicus; assay: In vivo antidyslipidemic activity against Triton WR 1339-induced hyperlipidemic Wistar rat model assessed as decrease in total cholesterol level in plasma at 56 umol/kg, ip administered as single dose 1 hr after Triton WR 1339 challenge measured after 24 hrs; assay type: functional
[19] = tested on: Mus musculus; assay: Hepatotoxicity in apoE-/- transgenic mouse assessed as liver enzymes level administered for 3.5 months; assay type: toxicity, organism-based; settings: in vivo
[20] = tested on: Mus musculus; assay: Antiatherosclerotic activity in apoE-/- transgenic mouse assessed as decrease in primary atherosclerotic lesions administered for 3.5 months; assay type: functional, organism-based
[21] = target: T3, Prostaglandin G/H synthase 1 (Bos taurus) (UniProt O62664); assay: Inhibition of bovine COX-1 assessed as PGF2-alpha formation using arachidonic acid as substrate at 20 uM by enzyme immunoassay
T3 sequence (whole entry): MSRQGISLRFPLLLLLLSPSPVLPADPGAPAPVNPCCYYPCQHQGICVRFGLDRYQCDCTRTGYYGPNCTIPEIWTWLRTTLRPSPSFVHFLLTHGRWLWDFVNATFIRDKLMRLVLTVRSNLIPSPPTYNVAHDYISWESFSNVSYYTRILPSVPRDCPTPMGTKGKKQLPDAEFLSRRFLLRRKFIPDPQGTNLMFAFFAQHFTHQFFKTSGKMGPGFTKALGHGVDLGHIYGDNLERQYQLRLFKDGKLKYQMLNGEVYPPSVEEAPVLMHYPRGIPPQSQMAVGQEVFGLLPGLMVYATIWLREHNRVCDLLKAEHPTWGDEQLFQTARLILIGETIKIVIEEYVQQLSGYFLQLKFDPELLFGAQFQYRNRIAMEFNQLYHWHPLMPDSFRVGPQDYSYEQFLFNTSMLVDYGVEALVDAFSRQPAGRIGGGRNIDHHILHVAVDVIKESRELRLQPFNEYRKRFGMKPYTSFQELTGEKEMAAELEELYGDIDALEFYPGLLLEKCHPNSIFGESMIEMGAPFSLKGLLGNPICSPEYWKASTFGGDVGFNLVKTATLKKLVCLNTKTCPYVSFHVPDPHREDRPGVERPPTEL

[22] = tested on: Mus musculus; assay: Antidyslipidemic activity in chronic high-fat diet (2.5 w/w cholesterol, 0.5% w/w cholic acid, 10% w/w peanut oil) fed SKH-2 mouse assessed as decrease in total cholesterol level in plasma at 56 umol/kg, ip bid for 21 days; assay type: functional; settings: SKH-2, Plasma, 504 h
[23] = species: Homo sapiens; assay: Antioxidant activity against CuSO4-induced human LDL oxidation assessed as lag time at 0.50 uM by spectrophotometric analysis (reference value: 122 mins); assay type: functional
[24] = species: Homo sapiens; assay: Antioxidant activity against CuSO4-induced human LDL oxidation assessed as lag time at 0.10 uM by spectrophotometric analysis (reference value: 122 mins); assay type: functional
[25] = species: Homo sapiens; assay: Antioxidant activity against CuSO4-induced human LDL oxidation assessed as delta-lag time at 0.10 uM by spectrophotometric analysis; assay type: functional
[26] = tested on: Mus musculus; assay: Effect on body weight in high-fat diet (35.5% w/w fat) fed SKH-2 mouse at 56 umol/kg, ip bid for 28 days; assay type: ADME, organism-based; settings: in vivo, 672 h
[27] = species: Homo sapiens; assay: Antioxidant activity against CuSO4-induced human LDL oxidation assessed as delta-lag time at 0.50 uM by spectrophotometric analysis; assay type: functional
[28] = species: Homo sapiens; assay: Antioxidant activity against CuSO4-induced human LDL oxidation assessed as inhibition of rate of conjugate diene formation at 0.10 uM by spectrophotometric analysis; assay type: functional
[29] = species: Homo sapiens; assay: Antioxidant activity against CuSO4-induced human LDL oxidation assessed as inhibition of rate of conjugate diene formation at 0.50 uM by spectrophotometric analysis; assay type: functional
[30] = species: Homo sapiens; assay: Antioxidant activity against CuSO4-induced human LDL oxidation assessed as increase in lag time at 1 uM by spectrophotometric analysis; assay type: functional
[31] = tested on: Mus musculus; assay: Antidyslipidemic activity in high-fat diet (35.5% w/w fat) fed SKH-2 mouse assessed as decrease in total cholesterol level in plasma at 56 umol/kg, ip bid for 28 days measured on day 28; assay type: functional; settings: SKH-2, Plasma, 672 h
[32] = tested on: Mus musculus; assay: Antidyslipidemic activity in high-fat diet (35.5% w/w fat) fed SKH-2 mouse assessed as triglyceride level in plasma at 56 umol/kg, ip bid for 28 days measured on day 28; assay type: functional, organism-based
[33] = species: Homo sapiens; assay: Antioxidant activity against CuSO4-induced human LDL oxidation assessed as prolongation of lag time by spectrophotometric analysis; assay type: functional
[34] = tested on: Mus musculus; assay: In vivo antioxidant activity in high-fat diet (35.5% w/w fat) fed SKH-2 mouse assessed as reduction in malondialdehyde level in plasma at 56 umol/kg, ip bid for 28 days measured on day 28; assay type: functional; settings: SKH-2, Plasma, 672 h
[35] = species: Homo sapiens; assay: Antioxidant activity against CuSO4-induced human LDL oxidation assessed as inhibition of rate of conjugate diene formation at 1 uM by spectrophotometric analysis; assay type: functional
[36] = tested on: Mus musculus; assay: Effect on food intake high-fat diet fed SKH-2 mouse at 56 umol/kg, ip bid for 28 days; assay type: ADME, organism-based; settings: in vivo, 672 h
[37] = species: Homo sapiens; assay: Antioxidant activity against CuSO4-induced human LDL oxidation assessed as increase in lag time at 0.50 uM by spectrophotometric analysis; assay type: functional
[38] = tested on: Mus musculus; assay: Toxicity in high-fat diet (35.5% w/w fat) fed SKH-2 mouse at 56 umol/kg, ip bid for 28 days by macroscopic analysis; assay type: organism-based; settings: in vivo, 672 h
[39] = tested on: Mus musculus; assay: Antidyslipidemic activity in high-fat diet (35.5% w/w fat) fed SKH-2 mouse assessed as HDL level in plasma at 56 umol/kg, ip bid for 28 days measured on day 28; assay type: functional, organism-based
[40] = tested on: Mus musculus; assay: Antidyslipidemic activity in high-fat diet (35.5% w/w fat) fed SKH-2 mouse assessed as decrease in LDL level in plasma at 56 umol/kg, ip bid for 28 days measured on day 28; assay type: functional; settings: SKH-2, Plasma, 672 h
[41] = tested on: Mus musculus; assay: Antidyslipidemic activity in high-fat diet (35.5% w/w fat) fed SKH-2 mouse assessed as HDL/LDL ratio in plasma at 56 umol/kg, ip bid for 28 days measured on day 28 (reference value: 0.5 no unit); assay type: functional
[42] = tested on: Mus musculus; assay: Effect on blood glucose level in high-fat diet (35.5% w/w fat) fed SKH-2 mouse at 56 umol/kg, ip bid for 28 days; assay type: ADME, organism-based; settings: in vivo, 672 h
[43] = species: Homo sapiens; assay: Antioxidant activity against CuSO4-induced human LDL oxidation assessed as increase in lag time at 0.10 uM by spectrophotometric analysis; assay type: functional
[44] = tested on: Mus musculus; assay: In vivo antiinflammatory activity in mouse assessed as decrease in carrageenan-induced paw edema at 0.30 mmol/kg, ip administered immediately after carrageenan injection measured after 3.5 hrs; assay type: functional

CN1CCOC(O)(c2ccc3c(c2)Nc2ccccc2S3)C1 (racemic)
Ratio [1]: 1.2
inhibition in vivo at 56 µmol/kg [2]: 76%
Activity [3]: Non-toxic
inhibition [4]: Dose-dependent effect
IC50 [5]: 5 µM
inhibition in vivo at 56 µmol/kg [6]: 53%
Activity [7]: Active
inhibition in vivo at 56 µmol/kg [8]: 80%
Activity [9]: Non-toxic
IC50 [10]: 191 µM
inhibition [11]: inactive
inhibition in vivo at 56 µmol/kg [12]: 58%
Activity [13]: Non-toxic
inhibition in vivo at 56 µmol/kg [14]: 94%
Activity [15]: inactive
Activity [16]: 120%
IC50 [17]: 0.47 µM
inhibition in vivo at 56 µmol/kg [18]: 70%
Activity [19]: Non-toxic
inhibition [20]: Active
inhibition [21]: 92%
inhibition in vivo at 56 µmol/kg [22]: 45%

CN1CC(O)(c2ccc3c(c2)Nc2ccccc2S3)OC2CCCCC21 (racemic)
TIME [23]: 3.33 h
TIME [24]: 1.82 h
inhibition [4]: Dose-dependent effect
IC50 [5]: 11.9 µM
Activity [7]: Active
TIME [25]: -0.217 h
Activity [26]: Non-toxic
inhibition in vivo at 56 µmol/kg [8]: 68%
TIME [27]: 1.3 h
inhibition [28]: 0%
inhibition [29]: 41%
Activity [30]: 100%
inhibition in vivo at 56 µmol/kg [31]: 54%
IC50 [10]: 188 µM
Activity [32]: inactive
Activity [33]: Dose-dependent effect
inhibition [11]: inactive
inhibition in vivo at 56 µmol/kg [34]: 38%
inhibition in vivo at 56 µmol/kg [14]: 77%
inhibition [35]: 100%
Activity [36]: Non-toxic
Activity [37]: 64%
Activity [38]: Non-toxic
Activity [39]: inactive
IC50 [17]: 0.93 µM
inhibition in vivo at 56 µmol/kg [18]: 50%
inhibition in vivo at 56 µmol/kg [40]: 76%
inhibition [21]: 55%
Ratio [41]: 1.7
Activity [42]: Non-toxic
Activity [43]: 0%
inhibition in vivo at 300 µmol/kg [44]: 41%
